# Measured values published in patent publication US8435992B2, “Multiple myeloma treatments” (Pharma Mar S.A., priority 2008, dated 2013).
# What was measured:
# [1] = system: OPM-1 plasmocytomas; test: Human plasmocytoma xenograft in CB17-SCID mice (OPM-1); type: in vivo; settings: for tumor volume (mean±SD): after 14 days of treatment
# Method: (§1) The in vivo efficacy of PM00104 was studied in a model of human plasmocytoma xenografted in CB17-SCID mice. These experiments were performed using the very sensitive cell line MM1S and the less sensitive one OPM-1. Two cohorts of thirty mice were subcutaneously injected with each cell line and mice were randomized into three groups receiving vehicle alone, 0.8 mg/kg of PM00104, or 1 mg/Kg PM00104 intravenously (iv) once weekly for three doses.
# (§2) CB17-SCID mice (The Jackson Laboratory, Bar Harbor, Me., USA) were subcutaneously inoculated into the right flank with 3×10^6 MM1S or OPM1 cells in 100 μL of RPMI-1640 medium and 100 μL of Matrigel (Becton Dickinson). When tumours became palpable, mice received PM00104 or vehicle alone. Treatment with PM00104 was given iv, at doses of 0.8 mg/kg and 1 mg/kg once weekly for three doses. The control group received the vehicle alone (sterile water for injection plus saline).
# (§3) Caliper measurements of the tumour diameters were performed every day, and the tumour volume was estimated as the volume of an ellipse using the following formula: V=4/3π×(a/2)×(b/2)^2, where “a” and “b” correspond to the longest and shortest diameter, respectively. Animals were euthanized when their tumours reached 2 cm. Differences in tumour volumes between treated and control groups were evaluated using 1-way analysis of variance and Bonferroni post hoc tests. Survival was estimated from the day of initiation of treatment, and statistical differences were assessed by Kaplan-Meier curves with the Log Rank test. Statistical analyses were performed with the SPSS-15.0 software (SPSS Inc. Chicago, Ill., USA) and statistical significance was defined as p<0.05.
# [2] = system: MM1S cells; test: Combination with antimyeloma agents, MTT assay, Chou Talalay combination index; type: cell-based, human; settings: 72 hours; for combination index (CI): Chou and Talalay method
# Method: FIG. 5. PM00104 potentiates the antimyeloma action of conventional and novel antimyeloma agents. MM1S cells were treated with suboptimal concentrations of PM00104 (Zalypsis, Z) and other antimyeloma agents such as Dexamethasone (Dex), melphalan (Mel), doxorubicin (Dox), bortezomib (Bort) and lenalidomide (Len) in double (FIG. 5A) and triple combinations (FIG. 5B). Cell viability was analyzed by MTT assay.
# MM1S cells were treated for 72 hours, as described in example 1, with combinations of suboptimal doses of PM00104 and other antimyeloma agents such as dexamethasone, melphalan, doxorubicin, bortezomib and lenalidomide, in double and triple combinations. Cell viability was analyzed by MTT assay as described in example 1. The potency of the combination was quantified with the Calcusyn software (Biosoft, Ferguson, Mo.), which is based in the Chou Talalay method, that calculates a combination index (CI) with the following interpretation: CI>1: antagonistic effect, CI=1: additivity and CI<1 synergistic effect.
# [3] = system: myelomatous plasma cells from bone marrow samples of MM patients; test: Ex vivo apoptosis (Annexin V) in bone marrow cells from MM patients; type: cell-based, human; settings: 1-50 nM, 18 hours
# Method: FIG. 2. Freshly isolated bone marrow cells obtained from six MM patients were treated ex vivo with PM00104 (1-50 nM) for 18 hours. After the incubation period, cells were stained with the combination of Annexin V-FITC, and three monoclonal antibodies against plasma cell surface antigens (CD38, CD56 and CD45) which allow the analysis of the induction of apoptosis in the myelomatous population. Results are given as the percentage of Annexin V positive cells related to the percentage of viable cells in the untreated sample.
# Additionally, the effect of PM00104 was further investigated ex vivo in cells isolated from bone marrow (BM) samples obtained from six patients with MM. Samples were lysed with ammonium chloride in order to remove red blood cells, and white cells were maintained in RPMI-1640 containing antibiotics (penicillin 100 U/ml, streptomycin 100 μg/ml) and 20% FBS. […] A total of 50,000 cells were acquired on a FACScalibur flow cytometer (BD Biosciences) and analyzed with the “Paint-a-Gate” program. Apoptosis was analyzed based on the Annexin-V positivity in the different populations: tumour PCs as well as in normal residual lymphocytes and granulo-monocytes. The percentage of Annexin V positive cells after treatment with PM00104 was calculated over the Annexin V negative cells (viable cells) in the control samples (without treatment).
# [4] = Systemic toxicity and body weight in xenografted mice; type: in vivo
# Method: as §1, §2
# [5] = system: MM1S; test: MTT viability assay, MM cell line panel; type: cell-based, human
# Method: (§4) Antitumor activity of PM00104 in MM was evaluated by using a cell line panel comprising the following 9 MM cell lines: MM1S, MM1R, MM144, RPMI8226, RPMI-LR5, U266, U266-LR7, OPM-1, and OPM-2. These cell lines were grown in RPMI 1640 medium with L-glutamine supplemented with antibiotics (penicillin at 100 U/mL, streptomycin at 100 μg/mL) and 10% fetal bovine serum (FBS) at 37° C. in a humidified atmosphere in the presence of 5% CO2-95% air.
# (§5) Cell lines were treated with increasing concentrations of the PM00104 (0.1-50 nM) for 24, 48 and 72 hours, and viability was analyzed by using 3-(4,5-dimethylthiazol-2-yl)-2,5-diphenyltetrazolium bromide (MTT) colorimetric assay. Briefly, MM cell lines were seeded at a density of 50,000 cells/200 […] medium per well in 48-well plates, and treated with a determined drug dose and time. Two hours before the end of the treatment, a MTT solution (5 mg/mL) in PBS) was added and the tetrazolium salt was reduced by metabolically active cells to coloured formazan crystals. After solubilization of these crystals by overnight incubation with 10% SDS-HCl solution, absorbance was measured at 570 nm with correction at 630 nm. Results are presented as the mean±SD of quadruplicates of an experiment that was repeated at least twice.
# [6] = system: MM1S plasmocytomas; test: Human plasmocytoma xenograft in CB17-SCID mice (MM1S); type: in vivo; settings: for tumor volume (mean±SD): after 15 days of treatment
# Method: as §1, §2, §3
# [7] = system: RPMI-LR5; test: MTT viability assay, MM cell line panel; type: cell-based; settings: RPMI-LR5 (melphalan resistant), 48 hours
# Method: as §4, §5
# [8] = system: RPMI8226; test: MTT viability assay, MM cell line panel; type: cell-based; settings: Homo sapiens, RPMI-8226, 48 hours
# Method: as §4, §5
# [9] = system: U266; test: MTT viability assay, MM cell line panel; type: cell-based; settings: Homo sapiens, U-266, 48 hours
# Method: as §4, §5
# [10] = system: MM1R; test: MTT viability assay, MM cell line panel; type: cell-based
# Method: as §4, §5
# [11] = system: OPM-1; test: MTT viability assay, MM cell line panel; type: cell-based; settings: Homo sapiens; OPM-1, MTT, 48 hours
# Method: as §4, §5
# [12] = system: MM144; test: MTT viability assay, MM cell line panel; type: cell-based
# Method: as §4, §5
# [13] = system: OPM-2; test: MTT viability assay, MM cell line panel; type: cell-based; settings: Homo sapiens; OPM-2, MTT, 48 hours
# Method: as §4, §5
# [14] = system: U266-LR7; test: MTT viability assay, MM cell line panel; type: cell-based; settings: U266-LR7 (melphalan resistant), 48 hours
# Method: as §4, §5
# [15] = system: MM1S cells; test: BrdU uptake of MM1S cells with IL-6, IGF-I or co-cultured BMSCs; type: cell-based, human; settings: 48 hours
# Method: (§6) FIG. 3. PM00104 overcomes the protective effects of IL-6, IGF-I, and adherence to patient BMSCs. MM1S cells were treated for 48 hours with indicated concentrations of PM00104 in the presence or absence of IL-6 (FIG. 3A), IGF-I (FIG. 3B), or BMSCs derived from a MM patient (FIG. 3C). DNA synthesis was determined by measuring BrdU incorporation during the last 8 hours of 48-hour cultures. Additionally, BMSCs were cultured with different doses of PM00104 for 48 hours and the cytotoxicity was analyzed by MTT assay (FIG. 3D). Data is presented as the mean±SD of quadruplicates.
# The presence of the BM microenvironment confers protection to MM through their adhesion or through the production of several cytokines such as IL-6 or IGF-I. In order to test whether PM00104 was able to inhibit this protective effect of the BM microenvironment, MM1S cells were incubated with IL-6 (1 nM) or IGF-I (10 nM), or co-cultured with BM stromal cells (BMSCs) for 48 hours, and then treated with increasing concentrations of PM00104. BMSCs were plated in 96-well culture dishes (50,000 cells/well) and allowed to reach confluence during 48 hours. Then, 30,000 myeloma cells were plated in RPMI 1640 containing 10% serum. Proliferation of MM cells was then assessed by Bromodeoxyuridine (BrdU) uptake (Maiso P et al. Br. J. Haematol. 2008, 141, 470-482). BrdU was added for the last 8 hours, and BrdU uptake was measured using a commercial kit (Roche Biochemicals), following the manufacturer's instructions.
# [16] = system: BMSCs derived from a MM patient; test: MTT cytotoxicity on BMSCs; type: cell-based, human; settings: 48 hours
# Method: as §6
# [17] = OPM-1, 0.8 mg/kg iv once weekly for three doses
# [18] = OPM-1, 1 mg/kg iv once weekly for three doses
# [19] = 0.8 mg/kg iv once weekly for three doses
# [20] = 1 mg/kg iv once weekly for three doses
compound,measurement,setting,value
COc1c(C)cc2c(c1O)[C@@H]1[C@@H]3Cc4c(OC(C)=O)c(C)c5c(c4[C@H](CNC(=O)/C=C/c4cccc(C(F)(F)F)c4)N3[C@@H](O)[C@H](C2)N1C)OCO5 [PM00104],median±SE survival,[1]; [17],21 ± 0.8 days
same,tumor volume (mean±SD),[1]; [17],1879±731 mm^3
same,median±SE survival,[1]; [18],23 ± 1.1 days
same,tumor volume (mean±SD),[1]; [18],1042±596 mm^3
same,effect of combination on cell viability,[2]; with bortezomib,promising additive/synergistic results
same,efficacy of triple combination vs respective double combinations,[2]; with dexamethasone + doxorubicin,significantly improved the efficacy
same,efficacy of triple combination vs respective double combinations,[2]; with dexamethasone + lenalidomide,significantly improved the efficacy
same,efficacy of triple combination vs respective double combinations,[2]; with dexamethasone + melphalan,significantly improved the efficacy
same,combination index (CI),[2]; with dexamethasone,0.78
same,combination index (CI),[2]; with doxorubicin,0.64
same,combination index (CI),[2]; with lenalidomide,0.55
same,combination index (CI),[2]; with melphalan,0.48
same,sensitivity of patient samples (Annexin V positive cells),"[3]; four out of six samples (patients 1, 6, 3 and 5)",very sensitive to low concentrations
same,sensitivity of patient samples (Annexin V positive cells),"[3]; patient 4, secondary plasma cell leukemia",intermediate sensitivity
same,systemic toxicity,[4]; 0.8 and 1 mg/kg iv once weekly for three doses,no significant systemic toxicity
same,weight loss (of body weight as compared to the controls),[4]; highest of PM00104 doses,around 10%
same,IC50 at 48 hours,[5],picomolar concentrations
same,median±SE survival,[6]; [19],52 ± 4.8 days
same,tumor volume (mean±SD),[6]; [19],420±242 mm^3
same,median±SE survival,[6]; [20],59 ± 5.5 days
same,tumor volume (mean±SD),[6]; [20],176±78 mm^3
same,IC50,[7],1 to 2 nM
same,IC50,[8],1 to 2 nM
same,IC50,[9],1 to 2 nM
same,IC50 at 48 hours,[10],picomolar concentrations
same,IC50,[11],1 to 2 nM
same,IC50 at 48 hours,[12],picomolar concentrations
same,IC50,[13],1 to 2 nM
same,IC50,[14],1 to 2 nM
same,effect on protective effect due to adhesion of plasma cells to BMSCs (BrdU uptake),[15]; MM1S co-cultured with BMSCs,largely inhibited
same,effect on proliferative advantage conferred by IGF-I (BrdU uptake),"[15]; MM1S, IGF-I 10 nM",completely abrogated
same,effect on proliferative advantage conferred by IL-6 (BrdU uptake),"[15]; MM1S, IL-6 1 nM",completely abrogated
same,cytotoxic effect on BMSCs,[16],very resistant
